These results are taken from patent USRE47689E1, “Compounds for treating spinal muscular atrophy” (PTC Therapeutics, Inc., priority 2011, dated 2019).

The structures appear in SMILES notation. Where a name gives a salt, the structure may show the parent alone. Where only a bound is given, the exact number is not on record here.

The test system of assay [1] is SMN2 minigene (full length SMN2 minigene mRNA containing SMN2 exon 7). Nature of the assay: SMN2 minigene mRNA splicing RT-qPCR assay in cultured cells. The assay is classed as cell-based, human. The settings on record: Homo sapiens, HEK293-H; HEK293H cells stably transfected with SMN2-A minigene; 24 hours; 7-point concentration curve; 1.5-fold relative to vehicle-treated cells; read-out: EC1.5x for production of full length SMN2 mRNA. On the procedure: The reverse transcription-quantitative PCR-based (RT-qPCR) assay is used to quantify the level of the full length SMN2 minigene mRNA containing SMN2 exon 7 in a HEK293H cell line stably transfected with said minigene and treated with a test compound.
Protocol. HEK293H cells stably transfected with the SMN2-A minigene construct described above (10,000 cells/well) are seeded in 200 μL of cell culture medium (DMEM plus 10% FBS, with 200 μg/mL hygromycin) in 96-well flat-bottom plates and the plate is immediately swirled to ensure proper dispersal of cells, forming an even monolayer of cells. Cells are allowed to attach for at least 4-6 hours. […] A solution of test compound (1 μL, 200× in DMSO) is added to each cell-containing well and the plate is incubated for 24 hours in a cell culture incubator (37° C., 5% CO2, 100% relative humidity). 2 replicates are prepared for each test compound concentration. The cells are then lysed in Cells-To-Ct lysis buffer and the lysate is stored at −80° C.
The combination of these three oligonucleotides detects only SMN1 or SMN2 minigenes (RT-qPCR) and will not detect endogenous SMN1 or SMN2 genes.
The SMN forward and reverse primers are used at final concentrations of 0.4 μM.
The SMN2-minigene GAPDH mix (15 μL total volume) is prepared by combining 7.5 μL of 2×RT-PCR buffer, 0.4 μL of 25×RT-PCR enzyme mix, 0.75 μL of 20×GAPDH primer-probe mix, 4.0075 μL of water, 2 μL of 10-fold diluted cell lysate, 0.06 μL of 100 μM SMN forward primer, 0.06 μL of 100 μM SMN reverse primer, and 0.225 μL of 100 μM SMN probe.
PCR is carried out at the following temperatures for the indicated time: Step 1: 48° C. (15 min); Step 2: 95° C. (10 min); Step 3: 95° C. (15 sec); Step 4: 60° C. (1 min); then repeat Steps 3 and 4 for a total of 40 cycles.
Each reaction mixture contains both SMN2-A minigene and GAPDH primers/probe sets (multiplex design), allowing simultaneous measurement of the levels of two transcripts.
Two SMN spliced products are generated from the SMN2 minigene. The first spliced product containing exon 7, corresponding to full length SMN2 mRNA, is called SMN2mini FL. The second one lacking exon 7 is called SMN2mini Δ7.
The amplification efficiency E is calculated from the slope of the amplification curve for SMN2mini FL and GAPDH individually. The abundances of SMN2mini FL and GAPDH are then calculated as […], where Ct is the threshold value for each amplicon. The abundance of SMN2mini FL is normalized to GAPDH abundance. The normalized SMN2mini FL abundance from test compound-treated samples is then divided by normalized SMN2mini FL abundance from vehicle-treated cells to determine the level of SMN2 FL mRNA relative to vehicle control.
An EC1.5x for production of full length SMN2 mRNA between >3 μM and ≤30 μM is indicated by one star (*), an EC1.5x between >1 μM and ≤3 μM is indicated by two stars (**), an EC1.5x between >0.3 μM and ≤1 μM is indicated by three stars (***), an EC1.5x between >0.1 μM and ≤0.3 μM is indicated by four stars (****) and an EC1.5x≤0.1 μM is indicated by five stars (*****).
(In qPCR the cycle at which signal appears reflects the starting amount.)

For the next assay, the system named is Smn protein. The assay can be described thus: Smn protein assay in cultured cells (SMN HTRF). In kind it is cell-based, human. Particulars: 48 hours; for EC1.5x (concentration giving 1.5-fold Smn protein increase): SMA Type 1 patient fibroblast cells (GM03813), 7-point concentration curve, SMN HTRF, concentration producing 1.5 times Smn protein vs DMSO vehicle control, read-out: EC1.5x for Smn protein expression; for maximum fold (Fold) increase of Smn protein: SMA patient fibroblast cells, 7-point concentration data, fold increase relative to vehicle control (SMN HTRF). On the procedure:
The SMN HTRF (homogeneous time resolved fluorescence) assay is used to quantify the level of Smn protein in SMA patient fibroblast cells treated with test compounds.
Protocol. Cells are thawed and cultured in DMEM-10% FBS for 72 hours. Cells are trypsinized, counted and resuspended to a concentration of 25,000 cells/mL in DMEM-10% FBS. […] 1 μL of test compound solution is transferred to cell-containing wells and cells are incubated for 48 hours in a cell culture incubator (37° C., 5% CO2, 100% relative humidity). Triplicate samples are set up for each test compound concentration. After 48 hours, the supernatant is removed from the wells and 25 μL of the RIPA lysis buffer, containing protease inhibitors, is added to the wells and incubated with shaking at room temperature for 1 hour. 25 μL of the diluent is added and then 35 μL of the resulting lysate is transferred to a 384-well plate, where each well contains 5 μL of the antibody solution (1:100 dilution of anti-SMN d2 and anti-SMN kryptate in SMN reconstitution buffer). The plate is centrifuged for 1 minute to bring the solution to the bottom of the wells, then incubated overnight at room temperature. Fluorescence for each well of the plate at 665 nm and 620 nm is measured on an EnVision multilabel plate reader (Perkin-Elmer).
The normalized fluorescence signal is calculated for each sample, Blank and vehicle control well by dividing the signal at 665 nm by the signal at 620 nm. Normalizing the signal accounts for possible fluorescence quenching due to the matrix effect of the lysate. The ΔF value (a measurement of Smn protein abundance) for each sample well is calculated by subtracting the normalized average fluorescence for the Blank control wells from the normalized fluorescence for each sample well and then dividing this difference by the normalized average fluorescence for the Blank control wells. The resulting ΔF value for each sample well represents the Smn protein abundance from test compound-treated samples. The ΔF value for each sample well is divided by the ΔF value for the vehicle control wells to calculate the fold increase in Smn protein abundance relative to the vehicle control.
An EC1.5x for Smn protein expression between >3 μM and ≤10 μM is indicated by one star (*), an EC1.5x between >1 and ≤3 μM is indicated by two stars (**), an EC1.5x between >0.3 μM and ≤1 μM is indicated by three stars (***) and an EC1.5x≤0.3 μM is indicated by four stars (****).
(In general: In TR-FRET formats the signal depends on donor and acceptor labels being close together.)

Regarding `Cc1cn2cc(-c3cc4ccc(OCCN5CC[C@H](O)C5)cc4oc3=O)nc2c(C)n1` [Compound 954, 3-(6,8-dimethylimidazo[1,2-a]pyrazin-2-yl)-7-{2-[(3S)-3-hydroxypyrrolidin-1-yl]ethoxy}-2H-chromen-2-one], the EC (1.5-fold) in assay [1] is under 0.1 µM. In the assay on Smn protein, the EC1.5x (concentration giving 1.5-fold Smn protein increase) was under 300 nM and the “maximum fold (Fold) increase of Smn protein” value (“maximum fold (Fold) increase” below) is listed as “***** (fold increase >1.65)”.
As to `O=c1oc2cc(N3CCNCC3)ccc2cc1-c1nc2ccccc2s1` [Cpd 4, 3-(1,3-benzothiazol-2-yl)-7-(piperazin-1-yl)-2H-chromen-2-one hydrochloride], the EC (1.5-fold) in assay [1] lay within 1 to 3 µM. Besides, the “maximum fold (Fold) increase” value in the assay on Smn protein is “* (maximum fold increase of ≤1.2)”.
On to `Cc1cn2cc(-c3cc4ccc(N5CC[C@@H](CN)C5)cc4oc3=O)nc2c(C)n1` [Compound 964, 7-[(3S)-3-(aminomethyl)pyrrolidin-1-yl]-3-(6,8-dimethylimidazo[1,2-a]pyrazin-2-yl)-2H-chromen-2-one], for which the EC (1.5-fold) in assay [1] lay within 0.1 to 0.3 µM. Also, the “maximum fold (Fold) increase” value with Smn protein is “** (fold increase between >1.2 and ≤1.35)”.
As for `CCN1CCN(c2ccc3cc(-c4cn5cc(C)nc(C)c5n4)c(=O)oc3c2)C[C@H]1C` [Compound 679, 3-(6,8-dimethylimidazo[1,2-a]pyrazin-2-yl)-7-[(3R)-4-ethyl-3-methylpiperazin-1-yl]-2H-chromen-2-one], in assay [1], the EC (1.5-fold) was under 0.1 µM. In addition, in the assay on Smn protein, the EC1.5x (concentration giving 1.5-fold Smn protein increase) was under 300 nM and the “maximum fold (Fold) increase” value is on record as “***** (fold increase >1.65)”.
For `Cc1cn2cc(-c3cc4ccc(N5CCN(C)[C@@H](C(C)C)C5)cc4oc3=O)nc2c(C)n1` [Compound 809, 3-(6,8-dimethylimidazo[1,2-a]pyrazin-2-yl)-7-[(3S)-4-methyl-3-(propan-2-yl)piperazin-1-yl]-2H-chromen-2-one], the EC (1.5-fold) in assay [1] was in the range of 0.3 to 1 µM. Also, in the assay with Smn protein, the EC1.5x (concentration giving 1.5-fold Smn protein increase) is 1000 to 3000 nM; the “maximum fold (Fold) increase” value is “**** (fold increase between >1.5 and ≤1.65)”.
Turning to `Cc1cn2cc(-c3cc4ccc(N5CC6(CNC6)C5)cc4oc3=O)cc(F)c2n1` [Compound 985, 7-(2,6-diazaspiro[3.3]hept-2-yl)-3-(8-fluoro-2-methylimidazo[1,2-a]pyridin-6-yl)-2H-chromen-2-one], the EC (1.5-fold) in assay [1] was under 0.1 µM. Besides, in the assay on Smn protein, the EC1.5x (concentration giving 1.5-fold Smn protein increase) is under 300 nM and the “maximum fold (Fold) increase” value is reported as “***** (fold increase >1.65)”.
Take `C[C@@H]1CN(c2ccc3cc(-c4cc5ncccn5c4)c(=O)oc3c2)C[C@H](C)N1` [Compound 580, 7-[(3R,5S)-3,5-dimethylpiperazin-1-yl]-3-(pyrrolo[1,2-a]pyrimidin-7-yl)-2H-chromen-2-one]: the EC (1.5-fold) in assay [1] lay within 1 to 3 µM. Besides, the “maximum fold (Fold) increase” value in the assay with Smn protein is “* (maximum fold increase of ≤1.2)”.
Turning to `O=c1oc2cc(N3CCNCC3)ccc2cc1-c1cn2ccccc2n1` [Compound 34, 3-(imidazo[1,2-a]pyridin-2-yl)-7-(piperazin-1-yl)-2H-chromen-2-one], the EC (1.5-fold) in assay [1] is 0.3 to 1 µM. Further, the “maximum fold (Fold) increase” value in the assay with Smn protein was “** (fold increase between >1.2 and ≤1.35)”.
As for `Cc1cn2cc(-c3cc4ccc(CCCNCCO)cc4oc3=O)nc2c(C)n1` [Compound 879, 3-(6,8-dimethylimidazo[1,2-a]pyrazin-2-yl)-7-{3-[(2-hydroxyethyl)amino]propyl}-2H-chromen-2-one], the EC (1.5-fold) in assay [1] was under 0.1 µM. Further, in the assay on Smn protein, the EC1.5x (concentration giving 1.5-fold Smn protein increase) is under 300 nM; the “maximum fold (Fold) increase” value was “**** (fold increase between >1.5 and ≤1.65)”.
Turning to `Cc1cn2cc(-c3cc4ccc(N5CCN6CCC[C@H]6C5)cc4oc3=O)nc2cn1` [Compound 609, 7-[(8aS)-hexahydropyrrolo[1,2-a]pyrazin-2(1H)-yl]-3-(6-methylimidazo[1,2-a]pyrazin-2-yl)-2H-chromen-2-one], in assay [1], the EC (1.5-fold) is under 0.1 µM. For the same compound, in the assay on Smn protein, the EC1.5x (concentration giving 1.5-fold Smn protein increase) is under 300 nM and the “maximum fold (Fold) increase” value is given as “***** (fold increase >1.65)”.
For `Cc1cn2cc(-c3cc4ccc(N5CCNC(C)(C)C5)cc4oc3=O)nc2c(C)n1` [Compound 736, 3-(6,8-dimethylimidazo[1,2-a]pyrazin-2-yl)-7-(3,3-dimethylpiperazin-1-yl)-2H-chromen-2-one] the same measures were under 0.1 µM, under 300 nM and “***** (fold increase >1.65)”.
With `O=c1oc2cc(N3CCNCC3)ccc2cc1-c1cn2cc(F)ccc2n1` [Compound 103, 3-(6-fluoroimidazo[1,2-a]pyridin-2-yl)-7-(piperazin-1-yl)-2H-chromen-2-one], the EC (1.5-fold) in assay [1] lay within 0.3 to 1 µM. Besides, the “maximum fold (Fold) increase” value in the assay with Smn protein was “** (fold increase between >1.2 and ≤1.35)”.
For the compound `CC(C)c1nccc(-c2cc3ccc(N4CCNCC4)cc3oc2=O)n1.Cl` [Compound 279, 7-(piperazin-1-yl)-3-[2-(propan-2-yl)pyrimidin-4-yl]-2H-chromen-2-one hydrochloride], the EC (1.5-fold) in assay [1] is 1 to 3 µM. In the assay with Smn protein, the “maximum fold (Fold) increase” value was “* (maximum fold increase of ≤1.2)”.
With `O=c1oc2cc(N3CCNCC3)ccc2cc1-c1ccc2nccn2c1` [Compound 980, 3-(imidazo[1,2-a]pyridin-6-yl)-7-(piperazin-1-yl)-2H-chromen-2-one], the EC (1.5-fold) in assay [1] was in the range of 0.3 to 1 µM. Further, in the assay with Smn protein, the “maximum fold (Fold) increase” value was “*** (fold increase between >1.35 and ≤1.5)”.
